Reference: patent publication US9603878B2, “Probiotic and prebiotic compositions, and methods of use thereof for treatment and prevention of graft versus host disease” (Evelo Biosciences, Inc., priority 2014, dated 2017)

Assays:
[1] = system: Tregs in the large intestine; conditions: germ-free mice and vancomycin-treated conventional mice; cited from earlier work
Lactobacillus johnsonii = assay: Sugar fermentation/growth in media lacking glucose (pH and optical density)
blautia = assay: as above
C57B1/6 female mice = conditions: mouse, in vivo
Description: The possibility that modification of the microbiome in a given physical location may influence the microbiome at other sites in the body (distal augmentation) was investigated. Seven week old C57B1/6 female mice were acclimatized for 7 days prior to the start of the study by daily handling and shuffling between cages. All mice were housed at three mice per cage in individually vented cages (Thoren, Hazleton, Pa.). At day 0, baseline fresh fecal pellets, and vaginal lavages with 100 μL of sterile double-distilled water were collected and immediately frozen at −80° C. for microbiome analysis. […] Water alone is not expected to influence the microbiome and acted as a negative control. […] The impact of oral vancomycin is therefore expected to be limited to the gastrointestinal tract such that microbiome changes elsewhere in the body (e.g. vagina) would be attributable to distal augmentation. At day 6, fresh fecal pellets and vaginal lavages with 100 μL of sterile double-distilled water were collected and immediately stored at −80° C. for microbiome analysis.
Isolation and sequencing of microbial DNA from the stool and vaginal samples was performed by DNA Genotek (Ottawa, ON, Canada). The V3-V4 region of the 16S ribosomal subunit was amplified with custom PCR primers and sequenced on an Illumina MiSeq to a minimum acceptable read depth of 25,000 sequences per sample. […]

[2] = system: healthy, adult volunteers; assay: Normal human volunteer study of D-xylose: CRP, serum cytokines, T-cell markers; type: in vivo
Description: Blood was collected at pre-specified pre- and post-ingestion time points to evaluate C-reactive protein (CRP), serum cytokines (tumor necrosis factor alpha [TNF-α], interleukin [IL]-2, IL-6, interferon gamma [IFN-γ], and IL-10), and T-cell markers CD3, CD4, CD8, CD25, and FOXP3. Plasma was also stored and may be tested for biomarkers and/or metabolic markers for up to 7 years.
Summary statistics (n, mean, standard deviation, median, minimum, and maximum) were presented for serum concentrations of CRP, flow cytometry T-cell markers (CD3, CD4, CD8, CD25, and FOXP3), and cytokines (TNF-α, IL-2, IL-6, IFN-γ, and IL-10) as per their nominal time points.

gut microbiome = assay: Normal human volunteer study of D-xylose: changes in the gut microbiome (stool 16S); type: in vivo; conditions: for alpha diversity of the gut microbiome: over time on study
[3] = system: healthy, adult volunteers; conditions: human, in vivo
Description: D-xylose is a carbon source generally preferred by anaerobic bacteria. […] A parallel, double-blind, 5 cohort escalation food safety study was conducted to examine D-xylose in normal human volunteers. The study was a double-blind, single-center, parallel group study designed to evaluate the tolerability and potential microbiome changes induced by ingestion of D-xylose at 5 different amounts in healthy, adult volunteers enrolled at 1 study center in the United States (US).
Subjects were screened for eligibility within 21 days prior to the first planned ingestion of study sweetener on Day 1 (Baseline). […]
Subjects returned to the study center weekly on Days 8, 15, 22, and 28 for ingestion, tolerability, and compliance evaluations. Safety was evaluated on a continual basis through adverse events (AE) monitoring, clinical laboratory measurements, vital sign monitoring, physical examinations, electrocardiograms (ECGs), telephone follow-up, and electronic subject ingestion diaries. Stool was collected pre-ingestion and at pre-specified time points, and post-ingestion samples were evaluated for changes in the gut microbiome compared with Baseline for all subjects. […]
Safety was evaluated on a continual basis through AE monitoring, clinical laboratory measurements, vital sign monitoring, physical examinations, ECGs, telephone follow-up, and electronic subject ingestion diaries. […]

normal mice = assay: Mouse study: gut microbiome after xylose treatment; type: in vivo
mice with GVHD = assay: Xylose in drinking water in experimental GVHD model after BMT; type: in vivo, mouse
tumors = conditions: oral administration; anti-PD-1 / anti-CTLA-4 antibody therapy; cited from earlier work

In the case of `CC(=O)O` [acetate], the “numbers of Tregs in the large intestine” value [1] is listed as “restored normal numbers of Tregs in the large intestine”.
For `CCC(=O)O` [propionate], the “numbers of Tregs in the large intestine” value [1] is listed as “restored normal numbers of Tregs in the large intestine”.
With `C[C@H](O)[C@H](O)[C@@H](O)[C@@H](O)C=O` [rhamnose] the “augmentation / fermentation by lactobacillus” value (Lactobacillus johnsonii) was “not lactobacillus” and the “augmentation / fermentation by blautia” value (blautia) was “specifically augments blautia”.
With `CN[C@H](CC(C)C)C(=O)N[C@H]1C(=O)N[C@@H](CC(N)=O)C(=O)N[C@H]2C(=O)N[C@H]3C(=O)N[C@H](C(=O)N[C@H](C(=O)O)c4cc(O)cc(O)c4-c4cc3ccc4O)[C@H](O)c3ccc(c(Cl)c3)Oc3cc2cc(c3O[C@@H]2O[C@H](CO)[C@@H](O)[C@H](O)[C@H]2O[C@H]2C[C@](C)(N)[C@H](O)[C@H](C)O2)Oc2ccc(cc2Cl)[C@H]1O` [vancomycin] the “impact on the microbiome of the gut (PCA, family level)” value (C57B1/6 female mice) was “strong impact on the microbiome of the gut” and the “impact on the vaginal microbiome (PCA, family level)” value (C57B1/6 female mice) was “showed an overall difference between the PBS and oral vancomycin groups”.
With `O=C[C@H](O)[C@@H](O)[C@H](O)CO` [xylose, D-xylose] the “total T-cells and T-cell subsets over time” value ([2]; any ingestion amount) was “No consistent or clinically meaningful changes over time in total T-cells or any T-cell subsets”, the “subjects with normal serum CRP at Baseline and at least 1 post-ingestion CRP value >2.9 mg/L” value ([2]; cohorts combined) was 8.3% and the “serum cytokines (TNF-α, IL-2, IL-6, IFN-γ, IL-10) over time” value ([2]; most data points BLQ) was “did not indicate any consistent or clinically meaningful changes over time”. The “augmentation / fermentation by lactobacillus” value (Lactobacillus johnsonii) was “not lactobacillus”, the “augmentation / fermentation by blautia” value (blautia) was “specifically augments blautia” and the “gut microbiome community composition over time” value (gut microbiome; regardless of ingestion amount) was “no significant changes in community composition”. The “alpha diversity of the gut microbiome” value (gut microbiome; regardless of ingestion amount) was “no major shifts in the microbiome alpha diversity”, the “alpha diversity of the gut microbiome” value (gut microbiome; regardless of ingestion amount, listed as D-xylose) was “no apparent significant impact on the intra-sample alpha diversity of the gut microbiome” and the “Chao diversity index over time” value (gut microbiome; xylose TID at 1, 2, 8, 12.5 or 15 grams) was “overall decrease in the Chao diversity index over time”. The “SAEs, severe AEs, deaths” value [3] was “No SAEs, severe AEs, or subject deaths were reported”, the “shifts in the gut microbiome” value (normal mice) was “did not cause major shifts in the gut microbiome but showed some differences at the family level” and the “survival of mice with GVHD” value (mice with GVHD; long-term administration) was “led to improved survival of mice with GVHD”. The “Blautia in the intestinal flora” value (mice with GVHD; xylose in drinking water, day 14 after BMT) was “lead to an expansion of Blautia in the intestinal flora”.
In the case of Bacteroides, the “responsiveness to checkpoint inhibitor therapy in cancer” value (tumors) is given as “increases the responsiveness”.
In the case of Bifidobacterium, the “responsiveness to checkpoint inhibitor therapy in cancer” value (tumors) is given as “increases the responsiveness”.
